Experimental data taken from paper PMC9262897, “Low-cost anti-mycobacterial drug discovery using engineered E. coli” (Nature Communications, 2022).
pIC50: −log10 of the molar value.

How the values were obtained:
[1] = target: T1, Mtb alanine racemase (Alr) (Mycobacterium tuberculosis, UniProt P9WQA9); experiment: […]; Michaelis-Menten kinetics; type: biochemical
[2] = target: T1, Mtb alanine racemase (Alr)

T1 sequence (P9WQA9 whole entry): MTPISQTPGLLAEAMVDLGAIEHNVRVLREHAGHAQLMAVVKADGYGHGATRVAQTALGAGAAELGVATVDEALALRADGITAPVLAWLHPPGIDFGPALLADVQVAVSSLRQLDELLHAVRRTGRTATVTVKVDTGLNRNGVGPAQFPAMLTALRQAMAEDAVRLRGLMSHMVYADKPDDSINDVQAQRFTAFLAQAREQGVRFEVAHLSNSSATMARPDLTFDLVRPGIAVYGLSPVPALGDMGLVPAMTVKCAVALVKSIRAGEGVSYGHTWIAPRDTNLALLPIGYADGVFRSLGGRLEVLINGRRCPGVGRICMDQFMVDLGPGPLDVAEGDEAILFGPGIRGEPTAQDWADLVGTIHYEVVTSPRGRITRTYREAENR

For `CCOC(=O)[C@H](CCc1ccccc1)N[C@H]1CCc2ccccc2N(CC(=O)O)C1=O` [benazepril], the pIC50 [1] was 3.52.

`C[C@@H](N)C(=O)O` [D-alanine] was tested, and the “Michaelis-Menten kinetics of purified Alr in the coupled NADH fluorescence assay” value [2] was “Varying the concentration of D-alanine yielded conventional Michaelis–Menten kinetics for Alr”.
